Values of other authors as cited in article PMC8405607 (British Journal of Cancer, 2021).

What was measured:
[1] = parameters: method as in PMID 24309210, PMID 23084521, PMID 28240971; conditions: liposarcoma trial; cited from earlier work
p53 = system: p53; parameters: method as in PMID 21643018; conditions: prolonged exposure; cited from earlier work

Row | Structure (SMILES) | patients experiencing grade 4 neutropenia [1] | patients experiencing prolonged grade 4 thrombocytopenia [1] | p53 mutations (p53)
1 | CCOc1cc(C(C)(C)C)ccc1C1=N[C@@](C)(c2ccc(Cl)cc2)[C@@](C)(c2ccc(Cl)cc2)N1C(=O)N1CCN(CCCS(C)(=O)=O)CC1 [RG7112] | 30% | 15% | 
2 | COc1ccc(C2=N[C@@H](c3ccc(Cl)cc3)[C@@H](c3ccc(Cl)cc3)N2C(=O)N2CCNC(=O)C2)c(OC(C)C)c1 [Nutlin-3a] |  |  | increased incidence of p53 mutations
